In PMC10638401, “Mannich-type modifications of (−)-cannabidiol and (−)-cannabigerol leading to new, bioactive derivatives” (Scientific Reports, 2023):
≈ marks a conversion by molar mass, not a printed value. Read-outs that look alike come from different tables or passages of the source.

What was measured:
[1] = system: SARS-CoV-2; assay: SARS-CoV-2 cytopathic effect (CPE) inhibition assay in Vero E6 cells (XTT); type: cell-based; conditions: for EC50: Vero E6 cells, 3 days post-infection, XTT
Protocol: (§1) CBD and CBG derivatives were further tested for their ability to inhibit SARS-CoV-2 replication in Vero E6 cells. Initially, the inhibition of virus-induced cytopathic effect was measured by addition of twofold serial dilutions of each derivative to the cells, followed by the infection with SARS-CoV-2 and determination of the cell viability 3 days post-infection by XTT assay. Concurrently, the cytotoxicity of each compound was assessed from identical dilutions in uninfected Vero E6 cells. To confirm anti-SARS-CoV-2 activity in the CPE inhibition assay, selected compounds were tested in immunofluorescence assay, where inhibition of SARS-CoV-2 replication was monitored as reduction in nucleoprotein expression using fluorescence microscope. […] Among the CBG derivatives, we can find quite cytotoxic and non-cytotoxic derivatives as well.
(§2) For CPE-based assay, two-fold fold serial dilutions of compounds from 100 µM were added in triplicate in a 384-well plate with 5000 Vero E6 cells in DMEM medium with 2% FBS, 100 U of penicillin/ml and 100 µg of streptomycin/ml (all Merck). After 1 h incubation SARS-CoV-2 (strain hCoV-19/Czech Republic/NRL_6632_2/2020) was added at multiplicity of infection […]. Following three days incubation at 37 °C in 5% CO2 the cell viability was determined by addition of XTT solution (Sigma-Aldrich) for 4 h and the absorbance was measured using EnVision plate reader (Perkin Elmer). Drug concentrations required to reduce viral cytopathic effect by 50% (EC50) were calculated using nonlinear regression from plots of percentage cell viability versus log10 drug concentration using GraphPad Prism (version 9.0.0, GraphPad Software, LLC). For immunofluorescence assay, two-fold fold serial dilutions of compounds from 100 µM were added in triplicate in 96-well plate with 15,000 Vero E6 cells plated day before in the same medium as above. After 1 h incubation, SARS-CoV-2 was added at multiplicity of infection 0.05 IU/cell. After three days of incubation, cells were fixed with 4% paraformaldehyde, permeabilized with 0.2% Triton X100 (both Merck), washed, incubated with anti-SARS-CoV-2antibody (mouse monoclonal antibody detecting SARS-CoV-2 nucleoprotein) for 2 h at room temperature. Followed by 1.5 h incubation with Cy3-labeled donkey anti-mouse IgG (Jackson ImmunoResearch Europe) and documented using fluorescence microscope with camera (Olympus). Images were processed in ImageJ software (NIH) and compound concentrations required to reduce fluorescence by 50% (EC50s) were calculated from plots of percentage of fluorescent cells versus log10 drug concentration using nonlinear regression analysis as above. Cytotoxicity was evaluated by incubating with the same two-fold serial dilutions of each compound as above with Vero E6 cells in 384-well plate.

[2] = system: SARS-CoV-2; assay: SARS-CoV-2 immunofluorescence assay (nucleoprotein expression) in Vero E6 cells; type: cell-based; conditions: three days
Protocol: as §1, §2

[3] = system: Vero E6 cells; conditions: uninfected Vero E6 cells, three days, XTT
[4] = system: Bacillus subtilis; assay: MIC, broth micro dilution
Protocol: (§6) According to CLSI guideline the Minimal Inhibitory Concentrations (MICs) of the prepared compounds were determined with the broth micro dilution method. After an overnight growth on 5% bovine blood agar plates at 35 °C bacterial strains were suspended in physiological saline in order to reach the density of 0.5 McFarland for inoculation. Stock solutions containing different concentrations of the substances were prepared in DMSO and H2O (1:1). These were twofold serially diluted from 256 to 0.5 mg/l in Mueller–Hinton broth, and 100 ml of each dilution was inoculated with 10 ml of each bacterial suspension.

[5] = system: MSSA (Methicillin Sensitive Staphylococcus aureus); assay: MIC, broth micro dilution
[6] = system: MRSA (Methicillin Resistant Staphylococcus aureus); assay: MIC, broth micro dilution
Protocol: as §6

[7] = system: Staphylococcus epidermidis biofilm forming; assay: MIC, broth micro dilution
Protocol: as §6

[8] = system: Staphylococcus epidermidis mecA; assay: MIC, broth micro dilution
[9] = system: Enterococcus faecalis 29 212; assay: MIC, broth micro dilution
Protocol: as §6

[10] = system: Enterococcus faecalis 15 376 VanA; assay: MIC, broth micro dilution
Protocol: as §6

[11] = system: Enterococcus faecalis 51299 VanB; assay: MIC, broth micro dilution
[12] = system: A2780 cells; assay: Antiproliferative MTT assay, 72 h; type: cell-based, human; conditions: A2780, 10 and 30 μM
Text: (§3) Human adherent cancer cell lines A2780, MDA-MB-231 and MCF-7 were obtained from ECACC (European Collection of Cell Cultures, Salisbury, UK; Cat. No.93112519, 92020424, 86012803, respectively). SiHa cell line was obtained from ATCC (American Tissue Culture Collection, Manassas, Virginia, USA; Cat. No. HTB-35). All cell lines used for antiproliferative assay were maintained in Eagle's Minimum Essential Medium (EMEM) completed with 10% fetal bovine serum (FBS), 1% non-essential amino acid solution, and 1% penicillin, streptomycin, and amphotericin B mixture under cell culture conditions described before. All the utilized media and supplements were purchased from Lonza Group Ltd. (Basel, Switzerland).
(§4) The antiproliferative actions of the prepared molecules were determined by the same assay against a panel of adherent human cancer cell lines containing cervical (SiHa), ovarian (A2780) and breast (MCF7, MDA-MB-231) cell lines. Cells were plated onto 96-well microplates (5000 cells/well) and after an overnight incubation treated with two concentrations (10 or 30 μM) of the test substances for 72 h under cell culture conditions. Subsequently, MTT (5 mg/ml in phosphate buffer) was added to the wells, followed by incubation for 4 h. The supernatant was removed, the formazan crystals were then dissolved in 100 µl DMSO. Finally, absorbance values were determined by a microplate reader (BMG Labtech, Ortenberg, Germany) at 545 nm. Two independent measurements were performed with five parallel wells. Results were expressed as percentage of cell proliferation inhibition compared to non-treated control samples regarded as 0%.

[13] = system: MCF7 cells; assay: Antiproliferative MTT assay, 72 h; type: cell-based, human; conditions: for antiproliferative activity (in words): MCF7, 10 and 30 μM
Text: as §3, §4

[14] = system: MDA-MB-231 cells; assay: Antiproliferative MTT assay, 72 h; type: cell-based, human; conditions: MDA-MB-231, 10 and 30 μM
Text: as §3, §4

[15] = system: SiHa cells; assay: Antiproliferative MTT assay, 72 h; type: cell-based, human; conditions: 10 and 30 μM
Text: as §3, §4

[16] = system: SZ95 sebocytes; assay: Viability MTT-assay on sebocytes, 48 h; type: cell-based, human; conditions: 30 μM
Protocol: (§5) Human immortalized SZ95 sebocytes, originated from human facial sebaceous glands[50] were provided by prof. Christos C. Zouboulis, and were cultured in Sebomed® Basal Medium (Cat. No. F8205; Sigma-Aldrich) supplemented with 10% FBS (Gibco-Thermo Fisher Scientific), 1 mM CaCl2 (Cat. No. C7902; Sigma-Aldrich), 5 ng/ml human epidermal growth factor (Cat. No. E9644; Sigma-Aldrich), and MycoZap™ Plus-CL (1:500; Lonza). The medium was changed every other day, and cells were subcultured at 60–70% confluence.
The viability of HaCaT keratinocytes and SZ95 sebocytes was determined by MTT-assay[58] (Cat. No. M5655; Sigma-Aldrich) measuring the conversion of the tetrazolium salt to formazan by mitochondrial dehydrogenases. Cells were plated in 96-well plates (20,000 cells/well), and were treated as indicated. Cells were then incubated with 0.5 mg/ml MTT reagent for 3 h, and concentration of formazan crystals (as an indicator of number of viable cells) was determined colorimetrically at 565 nm by using FlexStation 3 multi-mode microplate reader (Molecular Devices). Results were expressed as percentage of vehicle-treated control regarded as 100%.

[17] = system: SZ95 sebocytes; assay: Nile Red-assay, spontaneous sebaceous lipogenesis; type: cell-based, human; conditions: applied alone, 48 h
[18] = system: SZ95 sebocytes; assay: Nile Red-assay, arachidonic acid-induced lipogenesis; type: cell-based, human; conditions: 50 μM arachidonic acid, 48 h
Protocol: as §5
For quantitative measurement of sebaceous (neutral) lipid content, SZ95 sebocytes (20,000 cells/well) were cultured in 96-well “black well/clear bottom” plates (Cat. No. 655090; Greiner Bio-One, Frickenhausen, Germany), and were treated with compounds in the presence or absence of arachidonic acid (AA; Cat. No. 90010; Cayman Chemical Company, Ann Arbor, MI, USA) or its vehicle (absolute ethanol) as indicated. Subsequently, supernatants were discarded, cells were washed twice with phosphate-buffered saline (PBS; 115 mM NaCl, 20 mM Na2HPO4, pH 7.4; all from Sigma-Aldrich), and 100 µl of a 1 µg/ml Nile Red (Cat. No. N3013; Sigma-Aldrich) solution in PBS was added to each well. The plates were then incubated at 37 °C for 30 min, and fluorescence was measured on FlexStation 3 multimode microplate reader (Molecular Devices, San Francisco, CA, USA). Results, measured in relative fluorescence units, are expressed as percentage of the vehicle (absolute ethanol; Cat. No. 20821.296; VWR International)-treated control regarded as 100%, using 485 nm excitation and 565 nm emission wavelengths.

[19] = in vitro; conditions: African green monkey
[20] = Staphylococcus epidermidis biofilm forming
[21] = Staphylococcus epidermidis mecA
[22] = Enterococcus faecalis 15 376 VanA
[23] = Enterococcus faecalis 51299 VanB
[24] = Severe acute respiratory syndrome coronavirus 2, Vero C1008, 72 h

Row | SMILES | EC50 [1] [µM] | EC50 [2] [µM] | CC50 [3] [µM] | MIC [4] [µg/mL] | MIC [5] [µg/mL] | MIC [6] [µg/mL] | MIC [7, 20] [µg/mL] | MIC [8, 21] [µg/mL] | MIC ([9]; Enterococcus faecalis 29 212) [µg/mL] | MIC [10, 22] [µg/mL] | MIC [11, 23] [µg/mL] | antiproliferative activity (in words) [12] | antiproliferative activity (in words) [13] | antiproliferative activity (in words) [14] | antiproliferative activity (in words) [15] | viability (MTT signal intensity) [16] | spontaneous, homeostatic sebaceous lipogenesis [17] | effect on the lipogenic effect of arachidonic acid (AA) [18] | other results
1 | C#CCN1COc2c(C/C=C(\C)CCC=C(C)C)c(O)cc(CCCCC)c2C1 [Compound 18] | 15 ± 0.94 | > 28 | ~28 | > 256 | > 256 | > 256 | > 256 | > 256 | 64 (≈ 162 µM) | > 256 | 64 (≈ 162 µM) |  |  |  |  |  |  |  | 
2 | CCCCCc1c2c(c(C/C=C(\C)CCC=C(C)C)c3c1CN(CCCC)CO3)OCN(CCCC)C2 [Compound 16b] | > 7.7 |  | 7.7 ± 3.2 | > 256 | > 256 | > 256 | > 256 | > 256 | 64 (≈ 125 µM) | > 256 | 64 (≈ 125 µM) | more active than CBG | more active than CBG | more active than CBG | more active than CBG |  |  |  | 
3 | C#CCN1COc2c(c(CCCCC)cc(O)c2[C@@H]2C=C(C)CC[C@H]2C(=C)C)C1 [Compound 11] | 17 ± 1.5 | 33 ± 1.4 | 77 ± 2.6 | > 256 | > 256 | > 256 | > 256 | > 256 | 128 (≈ 325 µM) | > 256 | 128 (≈ 325 µM) | None of the other tested CBD analogs (9, 11, and 12) exhibited substantial antiproliferative activity | None of the other tested CBD analogs (9, 11, and 12) exhibited substantial antiproliferative activity | None of the other tested CBD analogs (9, 11, and 12) exhibited substantial antiproliferative activity | None of the other tested CBD analogs (9, 11, and 12) exhibited substantial antiproliferative activity |  |  |  | 
4 | CCCCCc1cc(O)c(C/C=C(\C)CCC=C(C)C)c2c1CN(CCCC)CO2 [Compound 16a] |  |  |  |  |  |  |  |  |  |  |  |  |  |  |  | tended to suppress viability | mimicked the previously reported weak lipogenic effect of CBG | suppress the effect of AA | 
5 | C=C(C)[C@@H]1CCC(C)=C[C@H]1c1c(O)cc(CCCCC)c2c1OCN(CCCC)C2 [Compound 8] | 21 ± 3.7 | 31 ± 1.1 | > 100 | > 256 | > 256 | > 256 | > 256 | > 256 | 2 (≈ 4.86 µM) | > 256 | 2 (≈ 4.86 µM) |  | more sensitive |  |  | cytotoxic effects | rather promote spontaneous, homeostatic sebaceous lipogenesis | mimic this lipostatic effect | inhibition of the proliferation (in words) ([13]; MCF7, 10 μM): much more potent than the parent CBD; promotion of spontaneous sebaceous lipogenesis, significance ([17]; 10 and 30 μM): statistically significant
6 | CCCCCc1c(CN(CC)CC)c(O)c(C/C=C(\C)CCC=C(C)C)c(O)c1CN(CC)CC [Compound 21b] |  |  |  | > 256 |  |  |  |  |  |  |  |  |  |  |  | rather increased MTT signal intensity | mimicked the previously reported weak lipogenic effect of CBG | suppress the effect of AA | EC50 [1, 24]: 12 ± 0.99 µM; IC50 ([1]; Severe acute respiratory syndrome coronavirus 2, Vero C1008, read-out: IC50 (anti-SARS-CoV-2 activity, Figure 8)): 12 µM; EC50 [2, 24]: > 100 µM; CC50 [19]: > 100 µM; MIC ([5]; Staphylococcus aureus): > 256 µg/mL; MIC ([6]; Staphylococcus aureus): > 256 µg/mL; MIC ([7]; Staphylococcus epidermidis): > 256 µg/mL; MIC ([8]; Staphylococcus epidermidis): > 256 µg/mL; MIC ([9]; Enterococcus faecalis, 29212): 64 µg/mL (≈ 131 µM); MIC ([10]; Enterococcus faecalis, 15376VANA): > 256 µg/mL; MIC ([11]; Enterococcus faecalis, 51299VANB): 64 µg/mL (≈ 131 µM)
